Test results reported in patent US9128097B2, “Method and kit for assessing viable cells” (ChemoMetec A/S, priority 2008, dated 2015).

System: bone marrow cells
Test: NAM/PI staining of bone marrow derived cells
Assay type: cell-based, murine
Conditions: bone marrow cells 93% viable; 10 μL NAM (100 μg pr. mL DMSO) to 90 μL cells
Procedure: Materials and Methods. The bone marrow cells were harvested aseptically in the laminarflow hood. Briefly, bilateral tibia and femur were aseptically removed, freed of surrounding soft tissue, and placed in a petri dish with 10 mL 70% ethanol. After 2 minutes they were transferred to ice cold PBS. The bone marrow cavity was then flushed with 5 ml cold PBS using a 5-ml syringe with a 27-gauge needle attached, and the cells were collected from each bone. The cells were centrifuged at 300 g for 10 min, the supernatant was discarded, and cells were washed twice. […] 90 μL bone marrow cellss (cell density 1.7×10^6, 93% viable determined using the NC-100 NucleoCounter system following the manufacturer's (ChemoMetec A/S) protocol) were added 10 μL NAM (N-(9-acridinyl)maleimide, Sigma, #01665, CAS no. 49759-20-8) dissolved in DMSO (100 μg NAM pr. mL DMSO) and mixed by pipetting. […] The cells were investigated using an Olympus IX50 fluorescence microscope, and images were captured using a Lumenera CCD camera and in-house developed software. PI and NAM fluorescence were detected using, respectively, U-MWG2 (green long pass: 510-550 nm) and U-MNUA2 (UV band pass, 330-385 nm) filter cubes (Olympus).

Compound: O=C1C=CC(=O)N1c1c2ccccc2nc2ccccc12 [NAM, N-(9-acridinyl)maleimide]
- staining of cells (UV filter) versus PI positive cells: nearly all the primary bone marrow cells were stained by NAM
